Measured values from US8273775B2, “Non-steroidal brassinosteroid mimetic” (priority 2006, dated 2012).

Legend:
[1] = test system: DR5, CYCB1;1 and CDKB1;1 promoters fused to GUS; experiment: GUS assay of promoter-reporter markers in first leaf; format: in vivo, Arabidopsis; details: for CDKB1;1-GUS expression: 30 μM ABRASIN or 1 μM BL, days 8 and 10
Experimental: FIG. 17: Investigation of differences in the rescue strategy of bri1-116 and cpd mutants treated with ABRASIN (30 μM) or BL (1 μM). The activation of markers for auxin response (DR5) and cell division (CYCB1; 1 and CDKB1; 1) was followed by localization of their promoters fused to β-glucuronidase (GUS) reporter gene. […] Samples for GUS assay were taken on day 6th (i.e. 1 day treatment), 8th (i.e. 3 days treatment), 10th (i.e. 5 days treatment). (A.) The effect of ABRASIN on the first leaf of bri1-116 and Col-0 plants—activity localization of DR5, CYCB1; 1 and CDKB1; 1 promoters fused to GUS reporter gene (B.) The effect of ABRASIN on the first leaf of cpd and Col-0 plants—activity localization of CYCB1; 1 and CDKB1; 1 promoters fused to GUS reporter gene. BL: brassinolide; BIK: abrasin.
(§1) Col-0, the null BR signaling bri1-116 (Friedrichsen et al., 2000) and BR biosynthetic cpd (Szekeres et al., 1996) mutants were subjected to phenotype rescue analysis by treatments with BL and ABRASIN. As a negative control, dimethylsulfoxide (DMSO) was used. Plants were germinated in vitro for 5 days on ½ MS containing DMSO medium and from day 6th to day 11th they were transferred on medium supplemented with BL (10 nM, 100 nM, 1000 nM), ABRASIN (5 μM, 10 μM, 30 μM) or DMSO. Cotyledons and leaves were collected for flowcytometric analysis at the 11th day (i.e. 6 days of treatments). Samples for β-glucuronidase (GUS) assay were taken on day 6th (i.e. 1 day treatments), 8th (i.e. 3 days treatments), 10th (i.e. 5 days treatments). Rescue of soil-grown mutants at different growth stages was checked by watering bri1-116 and cpd mutants with either BL or 2 ml 300 μM ABRASIN per day.
GUS staining was carried out by the method described by Jefferson et al. (1987). Images of GUS stained plants were taken with binocular microscope (MZ16, Leica) and Nikon camera.

[2] = test system: bri1-116, bri1-301 mutants; experiment: Phenotype rescue of BR perception (receptor) mutants; format: in vivo, Arabidopsis thaliana; details: for phenotype rescue of bri1-116 mutant: day 5 to day 11 on 1 μM BL or 30 μM ABRASIN; for rescue of dwarfed phenotype: light-grown, abrasin 50 μM or BL 1 μM
Experimental: FIG. 5: Effect of brassinolide (BL) and abrasin (I5) treatment on mutants. WT or mutant plants were grown under standard conditions on agar plates. After 3 days of germination, plants were transferred to agar plates containing abrasin at a concentration of 50 μM or BL at a concentration of 1 μM.
For further phenotypical analysis, all plants were grown on vertically oriented square plates (Greiner Labortechnik, Austria) with solid medium derived from standard Murashige and Skoog medium under the same conditions. For the hypocotyl-elongation assay, plants were grown in the dark at 22° C. under the same conditions.
as §1

[3] = test system: group I GSK-3 kinases (ASKs); experiment: ASK kinase assay with MBP as substrate, group I; format: biochemical, Arabidopsis; details: 10 μM abrasin
Experimental: (§2) Coomassie staining was used as a loading control. b, Autoradiography of kinase assays with nine ASKs with MBP as a substrate in the presence or absence of 10 μM abrasin. The second member of group IV, ASKκ, had no kinase activity and was not included in the analysis. c, Autoradiography of kinase assays with AtMPK4, AtMPK6 and MBP as a substrate (left) and with AtAUR1 kinase and histone H3 as a substrate (right) in the presence or absence of 10 μM abrasin.
(§3) For in vitro kinase assays, MBP, MBP-BES1, and MBP-bes1 (20 ng each) were incubated with GST-BIN2 or GST-BRI1 kinase (200 ng each) in 20 μl of kinase buffer (20 mM Tris [pH 7.5], 100 mM NaCl, and 12 mM MgCl2) and 10 μCi ^32P-γATP. After incubation at 37° C. for 40 min, the reactions were stopped by adding 20 μl of 2×SDS buffer and boiling at 94° C. for 5 min. Proteins were resolved by a PAGE gel and phosphorylation was detected by exposing the dried gel to X-ray film. […]
(§4) Besides BIN2, nine additional GSK-3 kinases (also designated ASKs for Arabidopsis SHAGGY-related kinases) divided into four subgroups (I-IV) have been identified in Arabidopsis (Jonak and Hirt, 2002; Yoo et al. 2006). To determine the specificity of abrasin, its effect on the kinase activity of all ASKs was analyzed with myelin basic protein (MBP) as a general substrate. […]

BIN2 kinase = biological target: T1, BIN2 kinase (Arabidopsis thaliana, UniProt Q39011); experiment: In vitro kinase assay GST-BIN2 with MBP-BES1; format: biochemical
T1 sequence (Q39011 1-380): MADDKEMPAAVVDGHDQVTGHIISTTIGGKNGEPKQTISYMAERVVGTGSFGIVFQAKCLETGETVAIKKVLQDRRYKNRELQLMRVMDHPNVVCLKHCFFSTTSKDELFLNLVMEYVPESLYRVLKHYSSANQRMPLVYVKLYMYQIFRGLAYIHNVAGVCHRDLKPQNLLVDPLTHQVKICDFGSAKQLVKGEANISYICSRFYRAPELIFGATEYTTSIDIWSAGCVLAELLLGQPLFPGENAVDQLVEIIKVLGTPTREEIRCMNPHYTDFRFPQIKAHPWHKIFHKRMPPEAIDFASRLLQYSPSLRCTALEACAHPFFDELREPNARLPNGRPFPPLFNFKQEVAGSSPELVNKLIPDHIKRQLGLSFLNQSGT
Experimental: as §2
For in vitro kinase assays, MBP, MBP-BES1, and MBP-bes1 (20 ng each) were incubated with GST-BIN2 or GST-BRI1 kinase (200 ng each) in 20 μl of kinase buffer (20 mM Tris [pH 7.5], 100 mM NaCl, and 12 mM MgCl2) and 10 μCi ^32P-γATP. After incubation at 37° C. for 40 min, the reactions were stopped by adding 20 μl of 2×SDS buffer and boiling at 94° C. for 5 min. Proteins were resolved by a PAGE gel and phosphorylation was detected by exposing the dried gel to X-ray film. Proteins from 35S::bes1-GFP transgenic plants were used for phosphatase (CIP) treatments as described (Fankhauser et al., 1999).

AtAUR1 = biological target: T2, AtAUR1 (Arabidopsis thaliana, UniProt Q9M077); experiment: Kinase assay with AtAUR1 and histone H3 as substrate; format: biochemical; details: 10 μM abrasin
T2 sequence (Q9M077 1-294): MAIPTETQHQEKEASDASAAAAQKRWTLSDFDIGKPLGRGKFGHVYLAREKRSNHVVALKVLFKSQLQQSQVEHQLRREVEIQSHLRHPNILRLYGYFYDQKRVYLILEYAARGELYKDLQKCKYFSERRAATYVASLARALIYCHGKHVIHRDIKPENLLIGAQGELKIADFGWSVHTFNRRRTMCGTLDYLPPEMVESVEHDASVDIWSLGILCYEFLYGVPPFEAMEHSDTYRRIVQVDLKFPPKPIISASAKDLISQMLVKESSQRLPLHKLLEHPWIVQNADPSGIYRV
Experimental: as §2, §3, §4

CC(C)[C@H](C)[C@@H](O)[C@H](O)[C@@H](C)[C@H]1CC[C@H]2[C@@H]3COC(=O)[C@H]4C[C@H](O)[C@H](O)C[C@]4(C)[C@H]3CC[C@]12C [BL, brassinolide, reference compound]
CDKB1;1-GUS expression [1]: induced only stomata specific expression | phenotype rescue of bri1-116 mutant [2]: bri1-116 was insensitive and therefore unaffected by BL | rescue of dwarfed phenotype [2]: but not the bri1 receptor mutants

O=C(O)CCC(=O)Nc1ccc(Br)cn1 [abrasin, 4-[(5-bromo-2-pyridinyl)amino]-4-oxobutanoic acid]
CYCB1;1 expression (cell division marker) ([1]; 30 μM ABRASIN): increased the CYCB1; 1 expression | CDKB1;1-GUS expression [1]: activated CDKB1; 1-GUS predominately in the leaf vasculature | DR5 activity in the leaves ([1]; 1 day of treatment): did not significantly increases the DR5 activity in the leaves | DR5 activity / auxin levels in the leaves ([1]; longer treatment): the auxin levels in both bri1-116 and wild type leaves were increased after longer treatment | time after treatment at which phenotypic changes were observed ([2]; bri1-116 and cpd mutants, 30 μM ABRASIN): 1 days | concentration sufficient to rescue the mutant phenotypes ([2]; bri1-116 and cpd mutants, 6 days of treatments): 10 µM | phenotype rescue of bri1-116 mutant [2]: rescued the phenotypes of both bri1-116 and cpd mutants to the wild-type | rescue of dwarfed phenotype [2]: all mutant lines, including the bri1 receptor mutants, showed an elongated phenotype | residual activity [3]: 6-8% | concentration at which inhibitory effect was already apparent (BIN2 kinase): lower than 2.5 μM | BIN2 kinase activity towards its substrate BES1 (BIN2 kinase; 0 to 10 μM): strongly reduced BIN2 kinase activity towards its substrate BES1 in a dose-dependent manner | inhibitory effect on BIN2 kinase activity (BIN2 kinase; at 10 μM): dramatic | effect on kinase activity (AtAUR1): no effect
